Assay results: the METLIN SMRT retention time set (Domingo-Almenara et al. 2019)

Experiment: gradient 5% acetonitrile 3 min, to 50% in 2 min, to 85% in 15 min, held 3 min, 100 µL/min
Settings: column: Zorbax Extend-C18 2.1 x 50 mm; eluents: water / acetonitrile, 0.1% formic acid
Method in brief: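 Values are retention times taken from adduct peaks that software picked and an analyst inspected. The pure standards were run as mixtures of ~100 molecules on HPLC linked to a quadrupole time-of-flight mass spectrometer, in positive and negative ionization mode. A Zorbax Extend-C18 column (2.1 × 50 mm, 1.8 μm) was used at 100 μL/min with water and acetonitrile, each including 0.1% formic acid.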

| Structure (SMILES) | RP-LC retention time [s] |
| --- | --- |
| CCc1ccc(NC(=O)CCS(=O)(=O)c2ccc3c(c2)CCCN3C(C)=O)cc1 | 808 |
| O=C(NCc1ccc(N2CCCC2)cc1)c1sc2ncccc2c1-n1cccc1 | 1130 |
| CCOc1cccc(CNC(=O)c2cn3c(n2)CCCC3)c1 | 602 |
| O=C(Cn1c(=O)n(C2CC2)c(=O)c2nscc21)NCc1cccs1 | 670 |
| Cc1nnc2ccc(-c3noc(-c4ccc(Br)cc4)n3)cn12 | 1030 |
| COc1ccc(C)cc1NC(=O)Cn1nc(N2CCSCC2)c2ccccc2c1=O | 1040 |
| Cc1ccc(N2CCN(Cc3nc4nc(C)cc(N5CCOCC5)n4n3)CC2)cc1 | 636 |
| COCc1nc(-c2ccc(OC3CN(Cc4ccsc4)C3)cc2)no1 | 656 |
| CCn1c(=O)n(CC(=O)NCCN2CCCC2)c(=O)c2cnc(-c3ccc(Cl)cc3)nc21 | 706 |
| Cc1cc(C)c2sc(N3CCN(C(=O)C4CCCN(S(C)(=O)=O)C4)CC3)nc2c1 (configuration not stated) | 787 |
| CC(=O)N1CCCc2cc(S(=O)(=O)CCC(=O)Nc3ccc(Br)cc3F)ccc21 | 824 |
| O=C(NCCCN1CCN(c2ccccc2)CC1)c1ccc(F)cc1F | 590 |
| COc1cccc(CNC(=O)C2CCN(S(=O)(=O)c3cn(C(C)C)cn3)CC2)c1 | 714 |
| O=C(Nc1ccc2c(c1)OCCO2)N1CCCCC1c1nc(CCOCC2CC2)no1 (configuration not stated) | 878 |
| CCNS(=O)(=O)c1cccnc1Nc1cc(C)cc(C)c1 | 1060 |
| COc1ccc(N2CCN(C(CNC(=O)C(=O)Nc3ccon3)c3ccco3)CC2)cc1 (configuration not stated) | 591 |
| O=C(CC1CC1)N1CC(F)(F)C[C@H]1c1nnc(-c2ccccc2)o1 | 804 |
| CCc1nc2c(c(=O)n1CC(=O)Nc1ccccc1OC)CN(Cc1ccccc1)CC2 | 650 |
| Cc1ccc(CNC(=O)C2CCN(S(=O)(=O)c3cn(C(C)C)cn3)CC2)cc1 | 745 |
| O=C(Cc1c[nH]c2ccccc12)N1CCc2cc(-c3ccno3)ccc21 | 825 |
| COc1cc(OC)c(NC(=O)CSc2nccnc2N2CCSCC2)cc1Cl | 1020 |
| O=C(NCc1cccnc1-c1ccc(F)cc1)c1ccc(Br)cc1 | 735 |
| CCOC(=O)c1c(C)oc2nc(C)nc(NCCCc3ccccc3)c12 | 1280 |

| Structure (SMILES) | RP-LC retention time [s] |
| --- | --- |
| CCc1cccc(NS(=O)(=O)c2cn(C(C)C)c3ncccc23)c1 | 946 |
| C=CCNC(=O)c1c2c(nc3ccc(C)cc13)CCC2 | 606 |
| CN(C)CC1CCC2=C(C1=O)C(c1ccc(Cl)c(Cl)c1)C1=C(CCC(CN(C)C)C1=O)O2 (configuration not stated) | 584 |
| CN1CCN(CCCNC(=O)CCCN2C(=O)C(c3ccccc3)Oc3cccnc32)CC1 (configuration not stated) | 595 |
| Cc1ccc(-n2nc3c(N4CCCC(C(=O)NCCc5ccccc5)C4)nnc(C)c3c2C)cc1 (configuration not stated) | 766 |
| CCOC(=O)c1cc2n(n1)CC(C)(C(=O)NC1CCCC1)N(Cc1cccc(F)c1)C2=O (configuration not stated) | 907 |
| COc1cccc(-c2nc(C3CCN(S(=O)(=O)c4ccc(C)c(F)c4)CC3)no2)c1 | 1170 |
| COc1ccccc1NC(=O)CN1CCN(Cc2ccc(C)cc2)C(=O)C1=O | 771 |
| C[C@H]1CN(C(=O)c2ccc3ccccc3n2)C[C@@H]1c1nc(-c2ccncc2)no1 | 830 |
| O=C(Nc1nnc(-c2ccc(Cl)s2)o1)c1ccc(S(=O)(=O)N2CCCC2)cc1 | 814 |
| Cc1nn2c(CNS(=O)(=O)c3cccc(Cl)c3C)c(-c3ccccc3)nc2s1 | 942 |
| COc1ccc2c(C)c(C(=O)NCCn3ncccc3=O)oc2c1 | 669 |
| CC(=O)N1CCC2(CC1)CC(CC(=O)N(C)C)CCO2 (configuration not stated) | 587 |
| O=C(NCC1CCCCC1)C1CCN(C(=O)c2ncn3c2COC(c2ccccc2)C3)CC1 (configuration not stated) | 802 |
| Cc1cc(C)c2[nH]c3c(c(=O)c2c1)CN(CC(=O)Nc1cc(F)cc(F)c1)CC3 | 673 |
| Cn1nccc1-c1nc(-c2ccc3oc(-c4ccccc4)nc3c2)no1 | 1230 |
| CC1CCN(c2cc(-c3noc(C(=O)NCCN(C)C)n3)ccn2)CC1 | 566 |
| CCCNC(=O)N(C1CCOCC1)C1CCN(C(=O)c2cccs2)CC1 | 657 |
| Cn1nc2n(c1=O)CCN(C(=O)Cc1cccs1)CC2 | 610 |
| CC(C)COc1cc(=O)n2c(c1C(=O)NCCCN1CCCCC1)CCCCC2 | 584 |
| Cc1c(C2CCN(C(=O)NCc3ccc(F)cc3)CC2)noc1N | 683 |
| COc1ccc(Nc2nc(-c3nnn(-c4ccc(Br)cc4F)c3C)ns2)cc1 | 1080 |
| CC(=O)c1cccc(NC(=O)c2sc3ccccc3c2Cl)c1 | 988 |

| Structure (SMILES) | RP-LC retention time [s] |
| --- | --- |
| CCCCc1ccc(NC(=O)Cn2cnc3nc(N4CCCC(C(=O)NCC)C4)sc3c2=O)cc1 (configuration not stated) | 801 |
| Nc1nnc(-c2ccc(Br)cc2)o1 | 647 |
| O=C(c1cncc(Br)c1)N1CCC(Cc2nnc(-c3ccccc3)o2)CC1 | 782 |
| Cc1ccn2c(Nc3ccc4c(c3)OCCO4)c(-c3ccccc3O)nc2c1 | 670 |
| O=S(=O)(c1ccc2c(c1)CCC2)N1CCC(c2noc(-c3cccc(F)c3)n2)CC1 | 1260 |
| CC(C)NC(=O)c1ccc(OCC2CCCN2C(=O)c2ccoc2)cc1 (configuration not stated) | 747 |
| CC(C)c1ccc(NC(=O)Cc2nnc(-c3ccc4ncccc4c3)o2)cc1 | 854 |
| COC1C(=O)N(CC2CC2)C12CCN(Cc1ccc(F)c(F)c1)CC2 (configuration not stated) | 623 |
| CCn1c(C(=O)NCc2ccc(N(C)C)cc2)cc2c(-c3cccs3)nn(-c3ccccc3)c21 | 906 |
| COc1ccc(N2CCN(c3nc4ccc(C)cc4cc3-c3noc(C)n3)CC2)cc1 | 700 |
| Cc1ccc(C(=O)Nc2nc(-c3ccc(Br)cc3)cs2)cc1[N+](=O)[O-] | 1210 |
| CN1C(=O)CSc2cnn(CC(=O)N3CCCc4ccccc43)c(=O)c21 | 726 |
| CCC1CCCCN1S(=O)(=O)c1cc(-c2nc(C)c(C)s2)sc1C (configuration not stated) | 1320 |
| CCc1cc(C2CCCN2Cc2ccc(OC)c(O)c2)on1 (configuration not stated) | 588 |
| Fc1ccc(-c2noc(Cc3nnc(-c4ccc(F)cc4)o3)n2)cc1 | 991 |
| COCCCn1c(=O)c2ccccc2n(Cc2nc(-c3ccc(Br)cc3)no2)c1=O | 1120 |
| CN1CCCn2cc(S(=O)(=O)Nc3cc(F)cc(F)c3)cc2C1=O | 718 |
| O=C(NC1CCc2nnc(C3CC3)n2CC1)c1ccsc1 (configuration not stated) | 594 |
| CCN1CCN(c2cc(C)c3cc(NC(=S)N4CCN(c5ccccc5F)CC4)ccc3n2)CC1 | 620 |
| CC(c1ccccc1)n1cnc2c(oc3ccccc32)c1=O (configuration not stated) | 859 |
| Cc1cccc(C(=O)NCC2CCCN(S(=O)(=O)c3ccc4c(c3)CCCC4)C2)c1 (configuration not stated) | 1150 |
